Data reported in the NIST ThermoML archive (doi:10.1016/j.tca.2013.07.012).
Numbers after ± are expanded uncertainties.

Key:
[1] = 101 kPa, Liquid, Vibrating tube method
[2] = xn = mol fraction of the nth substance listed; conditions: 101 kPa, Liquid, Vibrating tube method, x2 = 0

## OCC(O)CO [glycerol]
[1]; 278.15 K
  mass density: 1270.87 ± 0.22 kg/m3
[1]; 288.15 K
  mass density: 1264.4 ± 0.22 kg/m3
[1]; 293.15 K
  mass density: 1260.99 ± 0.22 kg/m3
[1]; 298.15 K
  mass density: 1257.91 ± 0.22 kg/m3
[1]; 308.15 K
  mass density: 1251.66 ± 0.22 kg/m3
[1]; 323.15 K
  mass density: 1242.11 ± 0.21 kg/m3
[1]; 333.15 K
  mass density: 1235.71 ± 0.21 kg/m3
[1]; 348.15 K
  mass density: 1225.79 ± 0.21 kg/m3

## O [water] + OCC(O)CO
[2]; 274.15 K
  mass density: 999.9 ± 0.1 kg/m3
[2]; 275.15 K
  mass density: 999.94 ± 0.1 kg/m3
[2]; 276.15 K
  mass density: 999.96 ± 0.1 kg/m3
[2]; 277.15 K
  mass density: 999.97 ± 0.12 kg/m3
[2]; 278.15 K
  mass density: 999.96 ± 0.1 kg/m3
[2]; 279.15 K
  mass density: 999.94 ± 0.1 kg/m3
[2]; 280.15 K
  mass density: 999.9 ± 0.1 kg/m3
[2]; 281.15 K
  mass density: 999.85 ± 0.1 kg/m3
[2]; 282.15 K
  mass density: 999.78 ± 0.1 kg/m3
[2]; 283.15 K
  mass density: 999.7 ± 0.1 kg/m3
[2]; 323.15 K
  mass density: 988.03 ± 0.11 kg/m3
[2]; 333.15 K
  mass density: 983.19 ± 0.11 kg/m3
[2]; 348.15 K
  mass density: 974.84 ± 0.11 kg/m3

## O [water]
[1]; 274.15 K
  mass density: 999.9 ± 0.1 kg/m3
[1]; 275.15 K
  mass density: 999.94 ± 0.1 kg/m3
[1]; 276.15 K
  mass density: 999.96 ± 0.1 kg/m3
[1]; 277.15 K
  mass density: 999.97 ± 0.12 kg/m3
[1]; 278.15 K
  mass density: 999.96 ± 0.1 kg/m3
[1]; 279.15 K
  mass density: 999.94 ± 0.1 kg/m3
[1]; 280.15 K
  mass density: 999.9 ± 0.1 kg/m3
[1]; 281.15 K
  mass density: 999.85 ± 0.1 kg/m3
[1]; 282.15 K
  mass density: 999.78 ± 0.1 kg/m3
[1]; 283.15 K
  mass density: 999.7 ± 0.1 kg/m3
[1]; 323.15 K
  mass density: 988.03 ± 0.11 kg/m3
[1]; 333.15 K
  mass density: 983.19 ± 0.11 kg/m3
[1]; 348.15 K
  mass density: 974.84 ± 0.11 kg/m3
